Entries after “also recorded” stand apart in the source; their conditions may differ.
Columns and labels:
heme oxygenase = conditions: cited from earlier work
[1] = system: term and late preterm subjects with hyperbilirubinemia; assay: Phase 2b trial: quantitative electrocardiograms (QT); assay type: in vivo, human
Source text: In some embodiments, 12-Lead ECGs measurements comprise clarification of a cardiovascular event, measurement of cardiac intervals and morphological assessment, measurements of the RR, PR, QRS, and QT interval durations and combinations thereof. In some embodiments, Bazett's correction of the QT interval (QTcB), Fridericia's correction of the QT interval (QTcF), and heart rate (HR) can be derived from 12-Lead ECGs measurements.
(§1) Safety measurements included adverse events (AEs), hematology and chemistry laboratory tests, vital sign measurements, physical examinations, dermatological assessments, hearing assessments, ophthalmological assessments, neurological assessments, and quantitative electrocardiograms (ECGs).
(§2) All other safety endpoints (vital sign measurements, hematology and chemistry laboratory tests, physical examination results, ECG results, etc.) were summarized by treatment group and visit. In addition, shift tables were generated for laboratory results comparing postbaseline results with baseline. Similar shift tables were generated for results of vital sign measurements.

[2] = system: term and late preterm subjects with hyperbilirubinemia; assay: Phase 2b trial: vital signs, physical, neurological, audiology and ophthalmological examinations; assay type: in vivo, human
Source text: as §1, §2

[3] = animal studies; doses approximately equivalent to the proposed human dose; cited from earlier work
[4] = system: term and late preterm subjects with hyperbilirubinemia; assay: Phase 2b trial: need for phototherapy/exchange transfusion, time to PT, duration of PT, time to hospital discharge; assay type: in vivo, human; conditions: for Time to discharge, Mean: from treatment; for Time to PT (range): subjects who needed PT
Method: PT was standardized for this study. TSB levels were initially assessed at 6 hours after IM injection to determine if PT was necessary. If the subject met the AAP Guidelines for starting PT, PT was initiated, and if the criteria were not met at the time, the subjects continued in the study until the next TSB level assessment (at 12, 24, and 48 hours following IMP injection). If, at any of these time points, the subject met the criteria for initiation of PT per AAP Guidelines, then PT was started.
In subjects receiving PT, determinations to assess whether or not PT was still required were done every 6 hours (±15 min); if the TSB was declining over 2 of these 6 hour assessments, TSB assessments could be done every 12 hours (±15 min). PT was stopped after 1 declining TSB assessment had been reviewed and the TSB level had declined to at least 2 mg/dL below the threshold for PT (as determined by the age of the subject when the blood was collected). As part of the clinical management of the subject, once PT was stopped, a TSB assessment was performed at approximately 6 hours later to assure there was no rebound in the bilirubin level. If the TSB rebounded above the threshold for PT, further clinical management was at the discretion of the principal investigator. After completion of Visit 4 (Day 30), parents/guardians were asked to enroll the completed subjects into a long term safety follow-up study.
The Secondary Efficacy Endpoints were the change from baseline in unadjusted TSB at 48 hours after treatment, change from baseline in adjusted and unadjusted TSB at various other time points after treatment, percent change from baseline in unadjusted TSB, proportion of subjects who require PT/exchange transfusion (ET), time to PT/ET, duration of PT and time to hospital discharge.
Analysis of Efficacy Parameters: The primary efficacy analysis applied the analysis of covariance (ANCOVA) method to determine if there was a significant difference between treatment groups in change in adjusted TSB levels from baseline to 48 hours post baseline after controlling for the effects of gestational age and adjusted baseline TSB levels. If assumptions of ANCOVA appeared to be violated, a Wilcoxon rank-sum test could be performed instead. Time-to-event variables were analyzed using the Kaplan-Meier method, and Kaplan-Meier survival curves were presented.

tin IV mesoporphyrin IX dichloride [Stannsoporfin]
inhibition of heme oxygenase (heme oxygenase): potent competitive inhibitor | QT prolongation ([1]; 1.5 to 4.5 mg/kg IM): no QT prolongation | effect on heart rate, PR interval, RR interval, QRS complexes and QT interval ([1]; 1.5 to 4.5 mg/kg IM): no effect | ECG results compared to the placebo group ([1]; final data): no dose-related trends or marked differences | effect on vital signs (blood pressure, pulse, respiratory rate, temperature) ([2]; 1.5 to 4.5 mg/kg IM, preliminary data): no effect | mean pulse ([2]; 45 minutes after treatment, no longer observed at 1.5 hours): decrease in mean pulse | audiology examinations ([2]; screening, 48 hours after treatment/hospital discharge, or early termination, all subjects): normal | effects on ECG, central nervous system, cardiovascular, pulmonary and renal functions [3]: no biologically significant effects | maximum duration of PT ([4]; 1.5 mg/kg): 1426 min | Duration of PT ([4]; 1.5 mg/kg IM): about 20 hours | Time to discharge, Range ([4]; 1.5 mg/kg IM): 14.6 to 143.3 h | subjects who received/required phototherapy (PT), n (%) ([4]; 1.5 mg/kg IM, N = 17): 3 (17.6%) | Time to discharge, Mean ([4]; 1.5 mg/kg IM): 38 h | Time to PT (range) ([4]; 1.5 mg/kg IM): 5.2 to 17.8 h | maximum duration of PT ([4]; 3 mg/kg): 1140 min | Duration of PT ([4]; 3.0 mg/kg IM): about 14 hours | Time to discharge, Range ([4]; 3.0 mg/kg IM): 11.5 to 77.0 h | subjects who received/required phototherapy (PT), n (%) ([4]; 3.0 mg/kg IM, N = 18): 6 (33.3%) | Time to discharge, Mean ([4]; 3.0 mg/kg IM): 42.8 h | Time to PT (range) ([4]; 3.0 mg/kg IM): 7.2 to 15.2 h | maximum duration of PT ([4]; 4.5 mg/kg): 990 min | Duration of PT ([4]; 4.5 mg/kg IM): about 14 hours | Time to discharge, Range ([4]; 4.5 mg/kg IM): 15 to 405.3 h | subjects who received/required phototherapy (PT), n (%) ([4]; 4.5 mg/kg IM, N = 8): 2 (25%) | Time to discharge, Mean ([4]; 4.5 mg/kg IM): 48.3 h | Time to PT (range) ([4]; 4.5 mg/kg IM): 7.3 to 8.8 h | time to hospital discharge compared to placebo ([4]; 4.5 mg/kg, largely due to 1 subject with meningitis): significantly greater | exchange transfusions (ET) required ([4]; all dose groups): no exchange transfusions; also recorded: no subjects requiring ET | readmission to hospital ([4]; all stannsoporfin dose groups): No subjects who received stannsoporfin were readmitted | treated infants requiring subsequent phototherapy ([4]; single 1.5 mg/kg dose): 17.6%

Reference: US20130158362A1 (INFACARE PHARMACEUTICAL CORPORATION, priority 2011, published 2013)
